Patent US12103943B2, “Development of novel clofarabine analogs for cancer therapy” (Southern Research Institute, priority 2021, dated 2024)
Entries after “also recorded” stand apart in the source; their conditions may differ. Read-outs that look alike come from different tables or passages of the source.

Legend:
[1] = system: MDA-MB-231; experiment: Cell viability after 72-hour incubation, CellTiter-Glo 2.0; assay type: cell-based; settings: Homo sapiens, read-out: IC50 (μM) MDA-MB-231
Protocol: (§1) Select tumor lines representative of triple negative breast cancer (MDA-MB-231 and BT549) were identified for testing of efficacy of compounds. Assessment of compound efficacy was determined by a test of cell viability after 72-hour incubation with compound using CellTiter-Glo 2.0 (Promega). […] Selectivity index is defined as the ratio of the calculated IC50 in normal epithelial lines to the calculated IC50 in a cancerous cell line. For CellTiter-Glo cells are plated in a 96-well, opaque, flat-bottomed black plate. Cells are seeded at 5,000 cells per well and allowed to incubate for 6 hours to allow for attachment. Cells are then dosed in a 12-point serial dilution spanning a range of 50 μM to 25 nM. Clofarabine is used as a positive control for all cell lines, and each plate contains media only, and DMSO controls as negatives for each compound tested. Final volume for both cells and compound should be 100 uL. After 72-hour exposure to compound, plates are removed from the incubator and allowed to equilibrate to room temperature for 30 minutes. An equal volume of CellTiter-Glo 2.0 reagent is added to media present in well (100 uL). Plates are then placed onto an orbital shaker and allow to incubate while shaking for 10 to 15 minutes. Raw luminescence readings are obtained. Log transformations of the background subtracted data are analyzed using a 4PL-fit model, and IC50 values are calculated based on the sigmoidal fit of the non-linear regression model.

[2] = system: BT549; experiment: as above; assay type: cell-based; settings: Homo sapiens, read-out: IC50 (μM) BT549
Protocol: as §1

[3] = Basic dose escalation test for tolerance of drug concentration; assay type: in vivo; settings: dose escalation 25, 40, 55 mg/kg, Q1D×5 with 2-day washout, B6C3F1/N female mice, FIG. 2
Protocol: Briefly, a cohort of B6C3F1/N female mice were split into three dosing arms: Control (N=2), Clofarabine (N=3), and compound 5 (N=3). The dosing schedule was set based on previous and historical dosing with nucleosides, Q1D×5 with a 2-day washout period before dose escalation. The selected dose concentrations were 25 mg/kg, 40 mg/kg, and 55 mg/kg. Blood was collected weekly by submandibular bleed for ALT and AST measurements, and at necropsy major organs were examined for gross toxicity.

[4] = system: MDA-MB-231 cells; experiment: In vivo efficacy in a solid tumor, triple negative breast cancer model; settings: 25 mg/kg intraperitoneal for 2 weeks, s.c. MDA-MB-231 tumors in athymic nude mice, FIG. 1
Protocol: Athymic nude mice (Crl:Nu(NCr)-Fox^1nu; Charles River) were injected s.c. in the right flank with 100 uL MDA-MB-231 cells in 1:1 RPMI 1640 and Cultrex BME Type 3 (1×10^6 cells/mouse). Tumors were allowed to grow until 500 mm^3 (Tumor Volume= […]×Length×Width^2), at which point mice were dosed […] for 2 weeks by intraperitoneal injection with either vehicle (N-Methyl-2-Pyrrolidone (NMP), Polyethylene glycol 400 (PEG400), and saline at a ratio of 1:2:2 v/v/v), 25 mg/kg of Clofarabine, or 25 mg/kg of compound 5. Tumor volumes were measured twice weekly, and bodyweight was measured daily during the dosing period. This was a pilot test to determine anti-tumor growth activity, so regrowth was not measured and the study was terminated two days after the final dose.

[5] = MDA-MB-231 triple negative breast cancer cells, 72-hour exposure, CellTiter-Glo 2.0, 50 μM to 25 nM
[6] = BT-549, BT549 triple negative breast cancer cells, 72-hour exposure, CellTiter-Glo 2.0, 50 μM to 25 nM

IC50 [1, 5]	IC50 [2, 6]	SMILES	other results
–	–	COC(=O)[C@H](C)NP(=O)(OC[C@H]1O[C@@H](n2cnc3c(N)nc(C(F)(F)F)nc32)C(F)C1O)Oc1ccccc1 (mixture of isomers) [Compound 12, methyl (2S)-2-[[phenoxy-[[rac-(2R,3R,4S,5R)-5-[6-amino-2-(trifluoromethyl)purin-9-yl]-4-fluoro-3-hydroxy-tetrahydrofuran-2-yl]methoxy]phosphoryl]amino]propanoate]	IC50 ([1]; MDA-MB-231, 72 h): 13.7 µM; IC50 ([2]; BT-549, 72 h): 13.1 µM
–	–	Nc1nc(Cl)nc2c1ncn2[C@@H]1O[C@H](CO)[C@@H](O)[C@@H]1F [Clofarabine, 2-chloro-2′-fluoro-2′-deoxy-9-β-D-arabinofuranosyladenine]	tolerance of drug concentration (toxicity, survival) [3]: Toxicity was seen immediately following the 55 mg/kg dose
4.16 µM	0.018 µM	Nc1nc(C(F)(F)F)nc2c1ncn2[C@@H]1O[C@H](CO)[C@@H](O)[C@@H]1F [Compound 5, (2R,3R,4S,5R)-5-[6-amino-2-(trifluoromethyl)purin-9-yl]-4-fluoro-2-(hydroxymethyl)tetrahydrofuran-3-ol]	tumor volume / anti-tumor growth activity [4]: effectively reduces tumor volume; also recorded: anti-growth efficacy
20.5 µM	–	CC(C)Nc1nc(C(F)(F)F)nc2c1ncn2[C@@H]1O[C@H](CO)[C@@H](O)[C@@H]1F [Compound 7a, (2R,3R,4S,5R)-4-fluoro-2-(hydroxymethyl)-5-(6-(isopropylamino)-2-(trifluoromethyl)purin-9-yl)tetrahydrofuran-3-ol]	–
≥ 67 µM	> 50 µM	CCC(CC)Nc1nc(C(F)(F)F)nc2c1ncn2[C@@H]1O[C@H](CO)[C@@H](O)[C@@H]1F [Compound 7b, (2R,3R,4S,5R)-5-[6-(1-ethylpropylamino)-2-(trifluoromethyl)purin-9-yl]-4-fluoro-2-(hydroxymethyl)tetrahydrofuran-3-ol]	–
2.58 µM	–	OC[C@H]1O[C@@H](n2cnc3c(NC4CC4)nc(C(F)(F)F)nc32)[C@@H](F)[C@@H]1O [Compound 7c, (2R,3R,4S,5R)-5-[6-(cyclopropylamino)-2-(trifluoromethyl)purin-9-yl]-4-fluoro-2-(hydroxymethyl)tetrahydrofuran-3-ol]	–
20.5 µM	15.1 µM	CC(Nc1nc(C(F)(F)F)nc2c1ncn2[C@@H]1O[C@H](CO)[C@@H](O)[C@@H]1F)C1CC1 (stereo partly drawn) [Compound 7d, (2R,3R,4S,5R)-5-[6-(1-cyclopropylethylamino)-2-(trifluoromethyl)purin-9-yl]-4-fluoro-2-(hydroxymethyl)tetrahydrofuran-3-ol]	–
–	13.8 µM	OC[C@H]1O[C@@H](n2cnc3c(NC4CCC4)nc(C(F)(F)F)nc32)[C@@H](F)[C@@H]1O [Compound 7e, (2R,3R,4S,5R)-5-[6-(cyclobutylamino)-2-(trifluoromethyl)purin-9-yl]-4-fluoro-2-(hydroxymethyl)tetrahydrofuran-3-ol]	–
> 50 µM	13.5 µM	CC1(Nc2nc(C(F)(F)F)nc3c2ncn3[C@@H]2O[C@H](CO)[C@@H](O)[C@@H]2F)CCC1 [Compound 7f, (2R,3R,4S,5R)-4-fluoro-2-(hydroxymethyl)-5-[6-[(1-methylcyclobutyl)amino]-2-(trifluoromethyl)purin-9-yl]tetrahydrofuran-3-ol]	–
–	5.89 µM	OC[C@H]1O[C@@H](n2cnc3c(NC4CCCC4)nc(C(F)(F)F)nc32)[C@@H](F)[C@@H]1O [Compound 7g, (2R,3R,4S,5R)-5-[6-(cyclopentylamino)-2-(trifluoromethyl)purin-9-yl]-4-fluoro-2-(hydroxymethyl)tetrahydrofuran-3-ol]	–
3.19 µM	–	CCCCCCCCCCCC(=O)Nc1nc(C(F)(F)F)nc2c1ncn2[C@@H]1O[C@H](CO)[C@@H](O)[C@@H]1F [Compound 10, N-[9-[(2R,3S,4R,5R)-3-fluoro-4-hydroxy-5-(hydroxymethyl)tetrahydrofuran-2-yl]-2-(trifluoromethyl)purin-6-yl]dodecanamide]	–
7.12 µM	> 50 µM	CC(C)C(=O)OC[C@H]1O[C@@H](n2cnc3c(N)nc(C(F)(F)F)nc32)[C@@H](F)[C@@H]1O [Compound 15, [(2R,3R,4S,5R)-5-[6-amino-2-(trifluoromethyl)purin-9-yl]-4-fluoro-3-hydroxy-tetrahydrofuran-2-yl]methyl 2-methylpropanoate]	–
11.4 µM	> 50 µM	CC[C@@H](C)[C@@H](N)C(=O)OC[C@H]1O[C@@H](n2cnc3c(N)nc(C(F)(F)F)nc32)[C@@H](F)[C@@H]1O [Compound 18, [(2R,3R,4S,5R)-5-[6-amino-2-(trifluoromethyl)purin-9-yl]-4-fluoro-3-hydroxy-tetrahydrofuran-2-yl]methyl (2R,3R)-2-amino-3-methyl-pentanoate]	–
